Measurements published in paper PMC4131461, “Antiviral Action of Synthetic Stigmasterol Derivatives on Herpes Simplex Virus Replication in Nervous Cells In Vitro” (BioMed Research International, 2014).

Columns and labels:
IFN-γ = experiment: IFN-gamma secretion in HSV-1-infected Neuro-2a cells (ELISA); format: cell-based, Murine; settings: HSV-1 KOS-infected Neuro-2a cells, 10 μM compound 1 / 5 μM compound 2, 24 h; for IFN-γ levels: infected control 154.7 ± 7.2
Method: (§1) Neuro-2a cells grown in 24-well plates were infected with HSV-1 at a multiplicity of infection (m.o.i.) of 1. After 24 h of incubation at 37°C cells supernatants were harvested and cytokines were quantified. Murine IL-6 and IFN-gamma were quantified by commercial ELISA sets (BD OptEIATM, Becton Dickinson, USA) according to manufacturer instructions.
(§2) On the other hand, compound 2 increases IL-6 levels in human epithelial cells infected with HSV-1 [12]. […] For that purpose, we used those supernatants in which the antiviral effect of compounds 1 and 2 was found (Figure 3(b)). IL-6 and IFN-γ secretion reached 659.6 ± 14.8 pg/mL and 154.7 ± 7.2 pg/mL in HSV-1 infected control cells, respectively. […] IFN-γ levels dropped to 72.3 ± 4.9 pg/mL (P < 0.006) (53.3%) and to 53 ± 4.2 pg/mL (P < 0.001) (65.7%) with respect to untreated infected cells after treatment with 1 and 2. Thus, compounds 1 and 2 might display an anti-inflammatory activity in HSV-1-infected Neuro-2a cells.

TNF-α = system: TNF-α; parameters: method as in earlier work; settings: compound 1: HSV-1-infected epithelial cells; compound 2: IOBA-NHC cells; Michelini, personal communication; cited from earlier work
[1] = MTT cytotoxicity assay in PC-12 cells; format: cell-based; settings: rat, PC-12 cells (confluent nongrowing monolayers), 24 h incubation at 37°C
Method: (§3) Cell viability in the presence of different concentration of the compound was determined using the MTT assay. The absorbance of each well was measured on Eurogenetics MPR-A 4i microplate reader using a test wavelength of 570 nm and a reference wavelength of 630 nm. The CC50 was defined as the concentration of the compound that caused a 50% reduction in absorbance.
(§4) Fifty percent cytotoxic concentration (CC50) for PC-12, Neuro-2a, and SH-SY5Y cells was determined. Compounds 1 and 2 were added to confluent nongrowing cells in concentrations ranging from 1 to 144 μM and from 1 to 129 μM, respectively, and, after 24 h incubation at 37°C, a MTT colorimetric assay was performed.
(§5) Figure 2 Cytotoxic effect of compounds 1 and 2 in three nervous cell lines. (a) PC-12, (b) Neuro-2a, and (c) SH-SY5Y cells monolayers were incubated in the presence of different concentrations of compounds 1 and 2. After 24 h of incubation at 37°C cell viability was determined by the MTT assay. The CC50 was defined as the concentration of the compound that caused a 50% reduction in cell viability. Data are mean values from four separate experiments.

[2] = system: glucocorticoid receptors (GR); parameters: method as in Michelini, personal communication; settings: ref Michelini, personal communication; cited from earlier work
[3] = MTT cytotoxicity assay in SH-SY5Y cells; format: cell-based; settings: human, SH-SY5Y cells (confluent nongrowing monolayers), 24 h incubation at 37°C
Method: as §3, §4, §5

IL-6 [4] = system: IL-6; parameters: method as in earlier work; settings: HSV-1-infected epithelial cells (IOBA-NHC and HCLE); Michelini, personal communication; cited from earlier work
IOBA-NHC cells = settings: cited from earlier work
[5] = MTT cytotoxicity assay in Neuro-2a cells; format: cell-based, Murine; settings: mouse, Neuro-2a cells (confluent nongrowing monolayers), 24 h incubation at 37°C
Method: as §3, §4, §5

HSV-1 Cgal [6] = experiment: HSV-1 Cgal virus yield reduction in nervous cell lines (plaque assay); format: cell-based, herpes simplex virus type 1; settings: regardless of the virus strain used (KOS wt or Cgal); PC-12, Neuro-2a, SH-SY5Y cells; 10 μM compound 1 / 5 μM compound 2, 24 h
Method: (§6) Cells grown in 24-well plates were infected with HSV-1 KOS and, after virus adsorption, treated or not with the compounds. After 24 h of incubation at 37°C, supernatants were collected and titrated in Vero cells. Briefly, Vero cells grown in 24-well plates were infected with serial 10-fold dilutions of viral yields and incubated for 1 h at 37°C. Residual inocula were replaced by maintenance medium with 0.7% of methylcellulose. After 72 h of incubation at 37°C, cells were fixed with formaldehyde 10% and stained with Crystal Violet, and plaque forming units were counted.
(§7) Cells grown in coverslips inside 24-well plates were infected with HSV-1 Cgal. After adsorption, inocula were eliminated and cells were covered with MEM 1.5%. At 24 h after infection (p.i.), supernatants were harvested and stored at −70°C for titration, and cells were stained in situ for β-gal. Coverslips were mounted, observed with an Olympus BX61 microscope, and photographed.
Figure 3 Effect of compounds 1 and 2 on HSV-1 virus yield reduction. (a) PC-12, (b) Neuro-2a, and (c) SH-SY5Y cells were infected with HSV-1 KOS (black bars) and HSV-1 Cgal (grey bars) and incubated for 1 h at 37°C. Then, cells were covered with DMEM/F12 2% or media containing 10 μM of compound 1 and 5 μM of compound 2. After 24 h supernatants were harvested and viral titres were determined by plaque assay. […]

[7] = system: glucocorticoid receptors (GR); parameters: method as in Michelini, personal communication; settings: ref Michelini, personal communication; cited from earlier work; remark: listed apart in the source
IL-6 [8] = experiment: IL-6 secretion in HSV-1-infected Neuro-2a cells (ELISA); format: cell-based, Murine; settings: HSV-1 KOS-infected Neuro-2a cells, 10 μM compound 1 / 5 μM compound 2, 24 h; for IL-6 levels, reduction: vs untreated infected cells; for IL-6 levels: infected control 659.6 ± 14.8
Method: as §1, §2

HSV-1 Cgal [9] = experiment: HSV-1 Cgal propagation, in situ beta-gal staining; format: cell-based, herpes simplex virus type 1; settings: PC-12, Neuro-2a, SH-SY5Y cells, m.o.i. 1, 10 μM of 1 / 5 μM of 2, 24 h
Method: as §7
We have previously reported that compounds 1 and 2 inhibit HSV-1 propagation in IOBA-NHC cells. To investigate the effect of both compounds on viral propagation, PC-12, Neuro-2a, and SH-SY5Y cells grown in coverslips inside 24-well plates were infected with HSV-1 Cgal (m.o.i. = 1) and, then, treated with control media, 10 μM of 1 and 5 μM of 2. After 24 h incubation at 37°C, cells were stained in situ for β-gal. […] Therefore, both compounds would prevent HSV-1 Cgal spreading in all nervous cell lines assayed when added after infection.
Figure 4 Effect of compounds 1 and 2 on HSV-1 propagation. (a) PC-12, (b) Neuro-2a, and (c) SH-SY5Y cells monolayers grown in coverslips inside 24-well plates were infected with HSV-1 Cgal and incubated for 1 h at 37°C. Then, cells were covered with DMEM/F12 2% or media containing 10 μM of compound 1 and 5 μM of compound 2. After incubation for 24 h, cells were stained in situ for β-gal. […]

HSV-1 KOS wt strain = experiment: HSV-1 KOS wt virus yield reduction in nervous cell lines (plaque assay); format: cell-based, herpes simplex virus type 1; settings: SH-SY5Y cells, m.o.i. 1, 5 μM compound 2, 24 h
Method: as §6
Neuro-2a, PC-12, and SH-SY5Y cells grown in 24-well plates were infected with HSV-1 KOS wt strain at m.o.i. of 1. After 24 h of incubation at 37°C, supernatants were collected and titrated in Vero cells.
Figure 3 Effect of compounds 1 and 2 on HSV-1 virus yield reduction. (a) PC-12, (b) Neuro-2a, and (c) SH-SY5Y cells were infected with HSV-1 KOS (black bars) and HSV-1 Cgal (grey bars) and incubated for 1 h at 37°C. Then, cells were covered with DMEM/F12 2% or media containing 10 μM of compound 1 and 5 μM of compound 2. After 24 h supernatants were harvested and viral titres were determined by plaque assay. Bars show average of two replicates ± SD. *P < 0.05, with respect to untreated infected cells.

Compound	IFN-γ levels, drop with respect to untreated infected cells (IFN-γ)	IFN-γ levels (IFN-γ)	effect on TNF-α levels (TNF-α)	CC50 at 24 h [1]	binding to glucocorticoid receptors (GR) [2]	CC50 at 24 h [3]	effect on IL-6 levels (IL-6 [4])	CC50 (IOBA-NHC cells)	CC50 at 24 h [5]	reduction in viral yields (HSV-1 Cgal [6])	induction of glucocorticoid activity via GR activation [7]	IL-6 levels, reduction (IL-6 [8])	IL-6 levels (IL-6 [8])	HSV-1 Cgal propagation (β-gal stained cells) (HSV-1 Cgal [9])	inhibition of HSV-1 yield (HSV-1 KOS wt strain)
CC[C@@H](C(C)C)[C@H](O)[C@@H](O)[C@@H](C)[C@H]1CC[C@H]2[C@@H]3CCC4=CC(=O)CC[C@]4(C)[C@H]3CC[C@]12C [Compound 1, (22S,23S)-22,23-dihydroxystigmast-4-en-3-one]	53.3%	72.3 ± 4.9 pg/mL	does not reduce	> 144 µM	none of them was able to bind	77.2 µM	does not reduce	71.2 µM	80.4 µM	1-2 log	none of them was able to	46.2%	355.4 ± 10.9 pg/mL	only scattered stained cells	
CC[C@@H](C(C)C)[C@H](O)[C@@H](O)[C@@H](C)[C@H]1CC[C@H]2[C@@H]3CC(=O)[C@@]4(O)C[C@@H](Br)CC[C@]4(C)[C@H]3CC[C@]12C [Compound 2, (22S,23S)-3β-bromo-5α,22,23-trihydroxystigmastan-6-one]	65.7%	53 ± 4.2 pg/mL	inhibits	> 129 µM	none of them was able to bind	70 µM	increases	> 277 µM	65.2 µM	1-2 log	none of them was able to	41.1%	388.2 ± 11.4 pg/mL	only scattered stained cells	~2 logs
